How the values were obtained:
[1] = tested on: IκB; assay: IκB degradation western blot, PI-activated primary T cells; assay type: cell-based, human; conditions: PI 30 min
Experimental: (§1) Purified primary human T-cells (10^7 T-cells at 1×10^6 cells/ml) were pretreated with various drugs for 30 min at 37° C. and then stimulated for 30 minutes with PMA and ionomycin. Cells were then pelleted and extracted with 2× protein load dye (Invitrogen, NP0008). Total cell lysates were boiled and centrifuged before loading. 10-15 μl of lysate (approximately 250,000 cells) per lane was run on a 10-12% Tris-Bis gel, or a 3-8% Tris-Acetate gel (precast from Invitrogen). Proteins were immunoblotted onto immobilon PVDF membrane (Millipore) for 30 min using an Owl Semi-Dry electroblotting system. Membranes were blocked with 4% milk for two hours and then incubated with appropriate primary antibodies, washed three times and then probed with secondary antibodies. Chemi-glow™ (Alpha Innotech) chemilluminescent detection solutions were added and image visualized and captured using an Alpha Imager 8900 (Alpha Innotech). NFAT1 was visualized using an antibody obtained from BD Transduction Laboratory (#610703). IκB-alpha was visualized using an antibody from Santa Cruz Biotechnology (#sc371). Mitogen activated protein kinases (MAPK) were visualized using the following antibodies obtained from Cell Signaling: ERK p44/p42 (phospho, #9101; total, #9102); p38 (phospho, #9211; total, #9212); and JNK/SAPK (phospho, #9251; total, #9252).
Primary T cells were activated in vitro with PI (30 min) and extracted for western blot analysis.

[2] = tested on: p38; assay: p38 phosphorylation western blot, activated primary T cells; assay type: cell-based, human; conditions: primary T cells activated 30 minutes
Experimental: as §1
(§2) Purified primary T cells were activated for 30 minutes and extracted for western blot analysis. Activation of each MAPK was tracked using phosphospecific antibodies to a regulatory site on each type of MAPK, normalized by the measurement of total amounts of each MAPK species (FIGS. 4A-4C).

[3] = tested on: ERK1/2; assay: ERK1/2 phosphorylation western blot, activated primary T cells; assay type: cell-based, human; conditions: highest dose tested: cyclosporine 1 μM, prednisolone 3 μM, amoxapine 30 μM, paroxetine 30 μM
Experimental: as §1, §2

[4] = tested on: NFκB; assay: NFκB-dependent transcription, NFκB luciferase reporter in CCRF-CEM cells activated with PI; assay type: cell-based
Source text: (§3) Reporter plasmids were transfected into CCRF-CEM cells using nucleofection (Nucleofector; AMAXA, Germany). Reporter plasmids expressing firefly luciferase (Luc) were purchased from Stratagene. pNFAT-Luc contains four NFAT binding sites; pGRE-Luc contains four GRE sites, and pAP1-Luc contains seven AP1 binding sites. The NFκB luciferase reporter, p(IL6κB)3-50hu.IL6-luc+, contains three NFκB sites and was a generous gift of Dr. De Bosscher (University of Ghent, Belgium). 10^7 cells suspended in 100 μL Amaxa ‘R’ Cell-line solution were transferred to a cuvette. One μL (1 μg/μL) of solution containing reporter plasmid (firefly luciferase) and control plasmid (pRL-TK-Renilla) (Renilla luciferase) (Promega) at a ratio of (10:1) were added to the cell suspension. […] After transfection the cells were suspended in 200 μL medium, allowed to recover for an hour, equal volume of medium containing 2× drugs were added and incubated at 37° C. for 30 min. Then the cells were stimulated with PI for another five hours. The luciferase activity of each of plasmid and control Renilla-plasmid were measured as per the procedure in Promega Luciferase assay kit.
NFκB-dependent transcription was measured by transient transfection of an NFκB reporter plasmid into CCRF-CEM cells and subsequent activation with PI.

[5] = tested on: NFAT; assay: NFAT-dependent transcription, NFAT luciferase reporter in CCRF-CEM cells activated with PI; assay type: cell-based
Source text: as §3

[6] = tested on: JNK; assay: JNK activation (phosphorylation) western blot, activated primary T cells; assay type: cell-based, human; conditions: primary T cells activated 30 minutes
Experimental: as §1, with “#9252). […]” for “#9252).”

[7] = tested on: NFκB; conditions: activated CCRF-CEM cells, p65
[8] = tested on: AP1; assay: AP1-dependent transcription, AP1 luciferase reporter in CCRF-CEM cells activated with PI; assay type: cell-based
Source text: as §3

[9] = tested on: NFAT; assay: NFAT dephosphorylation band shift on western blot, PMA/ionomycin-activated primary T cells; assay type: cell-based, human; conditions: up to 3 μM
Experimental: as §1, with “Mitogen activated protein kinases (MAPK) were visualized using the following antibodies obtained from Cell Signaling: ERK p44/p42 (phospho, #9101; total, #9102); p38 (phospho, #9211; total, #9212); and JNK/SAPK (phospho, #9251; total, #9252).” left out
T cells were isolated from the buffy coat of male donors between the ages of 35 to 50 years. These T cells were activated in vitro with PMA/ionomycin (PI) for 30 minutes and the phosphorylation of NFAT analyzed by mobility shift on a western blot. […]

[10] = tested on: NFAT; assay: NFAT nuclear translocation by immunofluorescence in PI-activated CCRF-CEM cells; assay type: cell-based
Source text: NFAT1 was visualized using an antibody obtained from BD Transduction Laboratory (#610703).

In the case of Clc1ccc2c(c1)C(N1CCNCC1)=Nc1ccccc1O2 [amoxapine], the “concentration at which IκB stabilization effects begin” value [1] is reported as 25 µM, the “effect in the p38 assay” value [2] is reported as “no effect” and the “prevention of phosphorylation of ERK1/2” value [3] is reported as “not effective”.

With C[C@]12C=CC(=O)C=C1CC[C@@H]1[C@@H]2[C@@H](O)C[C@@]2(C)[C@H]1CC[C@]2(O)C(=O)CO [prednisolone] the “inhibition of NFκB-dependent transcription” value ([4]; at 1 μM) was 30%, the “inhibition of PI-stimulated NFAT transcription” value ([5]; even at high doses) was “no strong inhibition” and the “effect on IκB degradation” value [1] was “no effect”. The “effect in the p38 assay” value [2] was “no effect”, the “effect on JNK” value [6] was “no effect” and the “prevention of phosphorylation of ERK1/2” value [3] was “not effective”. For the same compound, the “effect on NFκB translocation” value [7] was “no effect”, the “inhibition of AP1-dependent transcription” value ([8]; at 300 nM) was 30% and the “effect on NFAT dephosphorylation” value [9] was “no effect”. For the same compound, the “activity in NFAT translocation assay” value [10] was “not active”.

O=C(/C=C/c1ccc(O)c(O)c1)OCCc1ccccc1 [CAPE, caffeic acid phenethyl ester] was tested, and the “inhibition of NFκB-dependent transcription” value ([4]; CCRF-CEM cells, NFκB reporter, PI) was “inhibited”.

With Fc1ccc([C@@H]2CCNC[C@H]2COc2ccc3c(c2)OCO3)cc1 [paroxetine] the IC50 ([5]; Homo sapiens, CCRF-CEM cells, NFAT reporter, read-out: IC50, inhibition of PI-stimulated NFAT transcription) was 9 µM, the “concentration at which IκB stabilization effects begin” value [1] was 15 µM and the “concentration above which some phospho-p38 inhibition is seen” value [2] was “above 10 μM”. For the same compound, the “prevention of phosphorylation of ERK1/2” value [3] was “not effective”, the IC50 ([8]; CCRF-CEM cells, AP1 reporter, PI) was 20 to 30 µM and the IC50 ([10]; Homo sapiens, read-out: IC50, inhibition of NFAT translocation) was 30 µM.

Source: patent publication US20050271661A1, “Methods and reagents for the treatment of immunoinflammatory disorders” (priority 2004, published 2005)
